From patent US6362134B1, “Herbicidal 1,2,4,6-thiatriazines” (Syngenta Investment Corporation, priority 1996, dated 2002)

Key:
Assay type in all cases: in vivo
Avena = experiment: Herbicidal action before emergence of the plants (pre-emergent action); details: 2000 g of active substance/ha, sprayed immediately after sowing, evaluated after 3 weeks, ratings scale of nine levels (1=complete damage, 9=no action)
Protocol: (§1) Monocotyledon and dicotyledon test plants are sown in standard soil in plastic pots. Immediately after sowing, the test substances are sprayed on (500 l of water/ha) in an aqueous suspension prepared from a 25% wettable powder (Example F3, b)), corresponding to a dosage of 2000 g of active substance/ha. The test plants are then grown under optimum conditions in a greenhouse. After a test period of 3 weeks, the test is evaluated with a ratings scale of nine levels (1=complete damage, 9=no action). Ratings of 1 to 4 (in particular 1 to 3) mean a good to very good herbicidal action.
(§2) Test plants: Avena, Setaria, Sinapis, Stellaria

Stellaria [1] = experiment: Post-emergent herbicidal action (contact herbicide); parameters: key: 1=complete damage; 9=no action; Ratings of 1 to 4 (in particular 1 to 3) mean a good to very good herbicidal action; details: 2000 g of active substance/ha, sprayed in the 4- to 6-leaf stage, evaluated after about 18 days, ratings scale 1-9
Protocol: (§3) Monocotyledon and dicotyledon test plants are grown in plastic pots with standard soil in a greenhouse and, in the 4- to 6-leaf stage, are sprayed with an aqueous suspension of the test substances of the formula 1, prepared from a 25% wettable power (Example F3, b)), corresponding to a dosage of 2000 g of active substance/ha (500 l of water/ha). The test plants are then grown further in the greenhouse under optimum conditions. After a test period of about 18 days, the test is evaluated with a ratings scale of 9 levels (1=complete damage, 9=no action). Ratings of 1 to 4 (in particular 1 to 3) mean a good to very good herbicidal action.
(§4) Test plants: Sinapis, Stellaria

Sinapis [2] = experiment: as above; parameters: key: 1=complete damage; 9=no action; Ratings of 1 to 4 (in particular 1 to 3) mean a good to very good herbicidal action; details: 2000 g of active substance/ha, sprayed in the 4- to 6-leaf stage, evaluated after about 18 days, ratings scale 1-9
Protocol: as §3, §4

Stellaria [3] = experiment: Herbicidal action before emergence of the plants (pre-emergent action); parameters: key: 1=complete damage; 9=no action; Ratings of 1 to 4 (in particular 1 to 3) mean a good to very good herbicidal action; details: 2000 g of active substance/ha, sprayed immediately after sowing, evaluated after 3 weeks, ratings scale of nine levels
Protocol: as §1, §2

Sinapis [4] = experiment: as above; parameters: key: 1=complete damage; 9=no action; Ratings of 1 to 4 (in particular 1 to 3) mean a good to very good herbicidal action; details: 2000 g of active substance/ha, sprayed immediately after sowing, evaluated after 3 weeks, ratings scale of nine levels
Protocol: as §1, §2

Setaria = experiment: as above; parameters: key: 1=complete damage; 9=no action; Ratings of 1 to 4 (in particular 1 to 3) mean a good to very good herbicidal action; details: 2000 g of active substance/ha, sprayed immediately after sowing, evaluated after 3 weeks, ratings scale of nine levels
Protocol: as §1, §2

| SMILES | Pre-emergent action, rating, Avena (Avena) | Post-emergent action, rating, Stellaria (Stellaria [1]) | Post-emergent action, rating, Sinapis (Sinapis [2]) | Pre-emergent action, rating, Stellaria (Stellaria [3]) | Pre-emergent action, rating, Sinapis (Sinapis [4]) | Pre-emergent action, rating, Setaria (Setaria) |
| --- | --- | --- | --- | --- | --- | --- |
| NC1=NS(N2CC3CCCC2CC3)=NC(Oc2c(F)c(F)c(F)c(F)c2F)=N1 (stereo not drawn) [6.185] | 4 | 1 | 1 | 1 | 1 | 4 |
| CC1(C)CC2CC(C)(CN2S2=NC(N)=NC(Oc3c(F)c(F)c(F)c(F)c3F)=N2)C1 (single isomer, unassigned) [6.154] | 4 | 1 | 1 | 1 | 1 | 1 |
| CC1CC(C)CN(S2=NC(N)=NC(Oc3c(F)c(F)c(F)c(F)c3F)=N2)C1 (stereo not drawn) [6.124] | 3 | 3 | 2 | 1 | 1 | 1 |
| NC1=NS(N2CCCCCCCC2)=NC(Oc2c(F)c(F)c(F)c(F)c2F)=N1 (stereo not drawn) [6.257] | 3 | 2 | 2 | 1 | 1 | 2 |
| NC1=NC(Oc2cc(F)ccc2F)=NS(N2CCCC3CCCCC32)=N1 (stereo not drawn) [6.135] | 3 | 3 | 3 | 1 | 1 | 3 |
| CC1CCC2C(CCN2S2=NC(N)=NC(Oc3c(F)c(F)c(F)c(F)c3F)=N2)C1 (stereo not drawn) [6.298] | 3 | 4 | 1 | 1 | 1 | 2 |
| CC1CN(S2=NC(N)=NC(Oc3c(F)c(F)c(F)c(F)c3F)=N2)C2CCCCC12 (stereo not drawn) [6.295] | 3 | 3 | 1 | 1 | 1 | 1 |
| NC1=NS(N2CCc3ccccc3C2)=NC(Oc2c(F)c(F)cc(F)c2F)=N1 (stereo not drawn) [6.173] | 4 | 3 | 2 | 1 | 1 | 3 |
| NC1=NC(Oc2c(F)c(F)c(F)c(F)c2F)=NS(N2CCCCCC2)=N1 (stereo not drawn) [6.229] | 3 | 3 | 2 | 1 | 1 | 2 |
| CCC1CCCCN1S1=NC(N)=NC(Oc2c(F)c(F)c(F)c(F)c2F)=N1 (stereo not drawn) [6.30] | 3 | 3 | 2 | 1 | 1 | 2 |
| CC1CC2CCCCC2N(S2=NC(N)=NC(Oc3c(F)c(F)c(F)c(F)c3F)=N2)C1 (stereo not drawn) [6.292] | 5 | 3 | 2 | 1 | 1 | 1 |
| CC1CC2CCCCC2N1S1=NC(N)=NC(Oc2c(F)c(F)c(F)c(F)c2F)=N1 (stereo not drawn) [6.282] | 4 | 5 | 1 | 1 | 1 | 2 |
| C[Si](C)(C)COS1=NC(N)=NC(Oc2c(F)c(F)c(F)c(F)c2F)=N1 (stereo not drawn) [5.321] | 3 | 2 | 2 | 1 | 1 | 1 |
| NC1=NC(Oc2c(F)c(F)c(F)c(F)c2F)=NS(N2CCCC3CCCCC32)=N1 (stereo not drawn) [6.37] | 3 | 2 | 3 | 1 | 1 | 2 |
| CCN(C1CC(C)CC(C)(C)C1)S1=NC(N)=NC(Oc2c(F)c(F)c(F)c(F)c2F)=N1 (stereo not drawn) [6.140] | 4 | 3 | 2 | 1 | 2 | 3 |
| NC1=NS(N2CCC[C@H]3CCCC[C@H]32)=NC(Oc2c(F)c(F)cc(F)c2F)=N1 (relative stereo) [6.331] | 4 | 2 | 1 | 1 | 1 | 2 |
| CC1CN(S2=NC(N)=NC(Oc3c(F)c(F)c(F)c(F)c3F)=N2)CCC(C)(C)C1 (single isomer, unassigned) [6.92] | 4 | 1 | 1 | 1 | 1 | 1 |
| NC1=NC(Oc2c(F)c(F)c(F)c(F)c2F)=NS(N2CCC[C@H]3CCC[C@H]32)=N1 (relative stereo) [6.27] | 4 | 3 | 2 | 1 | 2 | 3 |
| CC1(C)CCCC(OS2=NC(N)=NC(Oc3c(F)c(F)c(F)c(F)c3F)=N2)C1 (stereo not drawn) [5.131] | 4 | 3 | 1 | 1 | 1 | 2 |
| CC1(C)CCCN(S2=NC(N)=NC(Oc3cc(F)ccc3F)=N2)C1 (stereo not drawn) [6.129] | 4 | 3 | 2 | 1 | 1 | 4 |
| CC(C)(C)C1CCC(OS2=NC(N)=NC(Oc3c(F)c(F)c(F)c(F)c3F)=N2)CC1 (stereo not drawn) [5.127] | 4 | 3 | 2 | 1 | 1 | 2 |
| NC1=NC(Oc2c(F)c(F)c(F)c(F)c2F)=NS(OC2CCCCCCC2)=N1 (stereo not drawn) [5.176] | 4 | 2 | 2 | 1 | 1 | 2 |
